Results reported in patent publication US4413005A, “Carbamate derivatives and insecticidal, miticidal or nematocidal compositions containing the same” (priority 1981, dated 1983).
Where two headings read alike, the source gives them in different places.

Assays:
[1] = system: green rice leafhopper (Nephotettix cincticeps); assay: Mortality of female adults of green rice leafhopper on paddy rice (Test Example 2); assay type: in vivo; conditions: 72 h
Protocol: An emulsion of specified concentration was prepared from a 50% wettable powder of the compound to be tested and applied to the leaves of paddy rice (one-month-old seedlings) planted in a pot to fully wet the leaves. After the emulsion had been dried, the pot was covered with a net cage, into which 10 female adults of green rice leafhopper (Nephotettix cincticeps) were released. The compound of each specified concentration was tested on two pots.

[2] = system: house fly (Musca domestica); assay: Local application to house fly, LD50 by Probit method (Test Example 4); assay type: in vivo; conditions: topical, 24 h
Protocol: The compound to be tested was dissolved in a predetermined amount of acetone. The solution was diluted to various concentrations and locally applied to house fly (Musca domestica).

[3] = system: tobacco cutworm (Spodoptera litura); assay: Mortality of third-instar larvae of tobacco cutworm on cabbage (Test Example 1); assay type: in vivo
Protocol: Ten third-instar larvae of tobacco cutworm (Spodoptera litura) were placed on a cabbage (one-month-old seedling) planted in a pot, and a 50% emulsion of the compound to be tested was diluted to a specified concentration and applied to the leaves of the plant to fully wet them. The test compound of each specified concentration was tested on two pots.

[4] = Acute oral toxicity in male mice, LD50 by Litchfield-Wilcoxon method (Test Example 5); conditions: mouse, in vivo, mortality on the seventh day
Protocol: Compounds of this invention were tested on male mice for acute toxicity by oral administration.

Row | SMILES | mortality at 200 ppm ([1]; 200 ppm active ingredient, from 50% wettable powder, three days later, read-out: Mortality) | mortality at 400 ppm ([1]; 400 ppm active ingredient, from 50% wettable powder, three days later, read-out: Mortality) | mortality at 800 ppm ([1]; 800 ppm active ingredient, from 50% wettable powder, three days later, read-out: Mortality) | LD50 [2] | mortality at 500 ppm ([3]; 72 h, 500 ppm active ingredient, 50% emulsion diluted, three days later, read-out: Mortality) | mortality at 1000 ppm ([3]; 72 h, 1,000 ppm active ingredient, 50% emulsion diluted, three days later, read-out: Mortality) | mortality at 2000 ppm ([3]; 72 h, 2,000 ppm active ingredient, 50% emulsion diluted, three days later, read-out: Mortality) | LD50 at 168 h [4] | mortality at 200 ppm [1] | mortality at 400 ppm [1] | mortality at 800 ppm [1] | mortality at 500 ppm ([3]; 72 h) | mortality at 1000 ppm ([3]; 72 h) | mortality at 2000 ppm ([3]; 72 h)
1 | CCOC(=O)CCN(SN(C)C(=O)Oc1cccc2c1OC(C)(C)C2)C(C)C [Example 23, 2,3-Dihydro-2,2-dimethylbenzofuran-7-yl N-(N-isopropyl-N-ethoxycarbonylethylaminosulfenyl)-N-methylcarbamate] | 55% | 85% | 100% | 44.3 mg/kg | 70% | 85% | 100% | 113 mg/kg | – | – | – | – | – | –
2 | COC(=O)CCN(SN(C)C(=O)Oc1cccc2c1OC(C)(C)C2)C(C)C [Example 24] | – | – | – | 38.6 mg/kg | – | – | – | 77 mg/kg | 60% | 90% | 100% | 75% | 85% | 100%
3 | CCCCOC(=O)CCN(SN(C)C(=O)Oc1cccc2c1OC(C)(C)C2)C(C)C [Example 25] | – | – | – | 50.1 mg/kg | – | – | – | 123 mg/kg | 65% | 90% | 100% | 75% | 90% | 100%
4 | CCCCC(CC)COC(=O)CCN(SN(C)C(=O)Oc1cccc2c1OC(C)(C)C2)C(C)C (stereo not shown) [Example 26] | – | – | – | 64.7 mg/kg | – | – | – | 150 mg/kg | 55% | 75% | 100% | 60% | 80% | 100%
5 | CCCCN(CCC(=O)OCC)SN(C)C(=O)Oc1cccc2c1OC(C)(C)C2 [Example 27, 2,3-Dihydro-2,2-dimethylbenzofuran-7-yl N-(N-n-butyl-N-ethoxycarbonylethylaminosulfenyl)-N-methylcarbamate] | – | – | – | 13.8 mg/kg | – | – | – | 105 mg/kg | 65% | 90% | 100% | 75% | 90% | 100%
6 | CCCCN(CCC(=O)OC)SN(C)C(=O)Oc1cccc2c1OC(C)(C)C2 [Example 28] | – | – | – | 17.7 mg/kg | – | – | – | 89 mg/kg | 65% | 90% | 100% | 75% | 90% | 100%
7 | CCOC(=O)CCN(SN(C)C(=O)Oc1cccc2c1OC(C)(C)C2)C(C)CC (stereo not shown) [Example 29] | – | – | – | 22.5 mg/kg | – | – | – | 120 mg/kg | 45% | 75% | 100% | 60% | 80% | 100%
8 | CCOC(=O)CCN(CC(C)C)SN(C)C(=O)Oc1cccc2c1OC(C)(C)C2 [Example 30] | – | – | – | 23.8 mg/kg | – | – | – | 133 mg/kg | 60% | 80% | 100% | 65% | 85% | 100%
9 | CCCCCCN(CCC(=O)OCC)SN(C)C(=O)Oc1cccc2c1OC(C)(C)C2 [Example 31] | – | – | – | 33.1 mg/kg | – | – | – | 135 mg/kg | 55% | 75% | 100% | 60% | 80% | 100%
10 | CCOC(=O)CCN(SN(C)C(=O)Oc1cccc2c1OC(C)(C)C2)C1CCCCC1 [Example 32, 2,3-Dihydro-2,2-dimethylbenzofuran-7-yl N-(N-cyclohexyl-N-ethoxycarbonylethylaminosulfenyl)-N-methylcarbamate] | – | – | – | 32.7 mg/kg | – | – | – | 107 mg/kg | 55% | 75% | 100% | 65% | 80% | 100%
11 | CCCCN(CC#N)SN(C)C(=O)Oc1cccc2c1OC(C)(C)C2 [Example 33, 2,3-dihydro-2,2-dimethylbenzofuran-7-yl N-(N-butyl-N-cyanomethylaminosulfenyl)-N-methyl-carbamate] | – | – | – | 9.1 mg/kg | – | – | – | 103 mg/kg | 70% | 90% | 100% | 75% | 90% | 100%
12 | CC(C)N(CC#N)SN(C)C(=O)Oc1cccc2c1OC(C)(C)C2 [Example 34] | – | – | – | 16.7 mg/kg | – | – | – | 95 mg/kg | 65% | 90% | 100% | 75% | 90% | 100%
13 | CN(SN(CC#N)c1ccccc1)C(=O)Oc1cccc2c1OC(C)(C)C2 [Example 35] | – | – | – | 65.6 mg/kg | – | – | – | 95 mg/kg | 60% | 75% | 95% | 65% | 80% | 100%
14 | Cc1ccc(N(CC#N)SN(C)C(=O)Oc2cccc3c2OC(C)(C)C3)cc1 [Example 36] | – | – | – | 59.3 mg/kg | – | – | – | 70 mg/kg | 60% | 75% | 95% | 65% | 80% | 100%
15 | CN(CCC#N)SN(C)C(=O)Oc1cccc2c1OC(C)(C)C2 [Example 37] | – | – | – | 11.8 mg/kg | – | – | – | 65 mg/kg | 65% | 85% | 100% | 70% | 85% | 100%
16 | CC(C)N(CCC#N)SN(C)C(=O)Oc1cccc2c1OC(C)(C)C2 [Example 38] | – | – | – | 17.5 mg/kg | – | – | – | 125 mg/kg | 70% | 90% | 100% | 75% | 90% | 100%
17 | CCCCN(CCC#N)SN(C)C(=O)Oc1cccc2c1OC(C)(C)C2 [Example 39, 2,3-Dihydro-2,2-dimethylbenzofuran-7-yl N-(N-n-butyl-N-cyanoethylaminosulfenyl)-N-methyl-carbamate] | – | – | – | 13.7 mg/kg | – | – | – | 110 mg/kg | 70% | 90% | 100% | 75% | 90% | 100%
18 | CC(C)CN(CCC#N)SN(C)C(=O)Oc1cccc2c1OC(C)(C)C2 [Example 40] | – | – | – | 37.9 mg/kg | – | – | – | 103 mg/kg | 70% | 85% | 100% | 75% | 85% | 100%
19 | CCCCCCCCN(CCC#N)SN(C)C(=O)Oc1cccc2c1OC(C)(C)C2 [Example 41] | – | – | – | 54.6 mg/kg | – | – | – | 105 mg/kg | 60% | 75% | 95% | 65% | 80% | 100%
20 | CN(SN(CCC#N)C1CCCCC1)C(=O)Oc1cccc2c1OC(C)(C)C2 [Example 42] | – | – | – | 46 mg/kg | – | – | – | 88 mg/kg | 65% | 85% | 100% | 70% | 85% | 100%
